The record followed here is patent US20090105221A1, “MUSCARINIC RECEPTOR ANTAGONISTS” (RANBAXY LABORATORIES LIMITED, priority 2004, published 2009).

The term melting point denotes the temperature, or range, at which the solid turns liquid. As to `O=C(NCC1C2CCC1CNC2)C(O)(c1ccccc1)c1ccccc1` (stereo not shown), the melting point worked out at 85.2 °C.
